Results: US6511997B1, “Aminopyrazole derivatives” (Teikoku Hormone Mfg. Co., Ltd., priority 1998, dated 2003)

melting point [°C]	Compound
129.2 to 130.6	Cn1nc(-c2ccc(F)cc2)c(-c2ccncc2)c1NC(=O)Cc1c(F)ccc([N+](=O)[O-])c1Cl [Example 83, 5-(2-chloro-6-fluoro-3-nitrophenylacetylamino)-3-(4-fluorophenyl)-1-methyl-4-(4-pyridyl)pyrazole]
190 to 191.3	C[C@H](NC(=O)OCc1ccccc1)C(=O)Nc1n[nH]c(-c2ccc(F)cc2)c1-c1ccncc1 [Example 84, 3-(N′-carbobenzoxy-L-alanylamino)-5-(4-fluorophenyl)-4-(4-pyridyl)pyrazole]
231.1	CC(C)[C@H](NC(=O)OCc1ccccc1)C(=O)Nc1n[nH]c(-c2ccc(F)cc2)c1-c1ccncc1 [Example 85, 3-(N′-carbobenzoxy-L-valylamino)-5-(4-fluorophenyl)-4-(4-pyridyl)pyrazole]
242.4 to 244.1	O=C(Cc1ccccc1[N+](=O)[O-])Nc1n[nH]c(-c2ccc(F)cc2)c1-c1ccncc1 [Example 92, 5-(4-fluorophenyl)-3-(2-nitrophenylacetylamino)-4-(4-pyridyl)pyrazole]
196.3 to 197.1	Nc1ccccc1CC(=O)Nc1n[nH]c(-c2ccc(F)cc2)c1-c1ccncc1 [Example 93, 5-(4-fluorophenyl)-3-(2-aminophenylacetylamino)-4-(4-pyridyl)pyrazole]
110.6 to 119	Cn1nc(-c2ccc(F)cc2)c(-c2ccncc2)c1NC(=O)Cc1cccc(N)c1 [Example 94, 5-(3-Aminophenylacetylamino)-3-(4-fluorophenyl)-1-methyl-4-(4-pyridyl)pyrazole]
127.1 to 128.6	Cn1nc(-c2ccc(F)cc2)c(-c2ccncc2)c1NC(=O)Cc1ccc(O)cc1 [Example 95, 5-(4-hydroxyphenylacetylamino)-3-(4-fluorophenyl)-1-methyl-4-(4-pyridyl)pyrazole]
219 to 221.2	CCn1nc(-c2ccc(F)cc2)c(-c2ccncc2)c1NC(=O)Cc1ccccc1 [Example 97, 1-Ethyl-3-(4-fluorophenyl)-5-phenylacetylamino-4-(4-pyridyl)pyrazole]
226 to 232.3	CCn1nc(-c2ccc(F)cc2)c(-c2ccncc2)c1NC(=O)Cc1ccccc1Cl [Example 98, 5-(2-Chlorophenylacetylamino)-1-ethyl-3-(4-fluorophenyl)-4-(4-pyridyl)pyrazole]
176.5 to 178.5	CCCn1nc(-c2ccc(F)cc2)c(-c2ccncc2)c1NC(=O)Cc1ccccc1 [Example 99, 3-(4-Fluorophenyl)-5-phenylacetylamino-1-propyl-4-(4-pyridyl)pyrazole]
147.5 to 149.5	CCn1nc(-c2ccc(F)cc2)c(-c2ccncc2)c1NC(=O)Cc1ccccn1 [Example 100, 1-Ethyl-3-(4-fluorophenyl)-4-(4-pyridyl)-5-(2-pyridylacetylamino)pyrazole]
142.9 to 144.2	COc1ccccc1CC(=O)Nc1c(-c2ccncc2)c(-c2ccc(F)cc2)nn1CCOCc1ccccc1 [Example 103, 1-(2-Benzyloxyethyl)-3-(4-fluorophenyl)-5-(2-methoxyphenylacetylamino)-4-(4-pyridyl)pyrazole]
200.6 to 204.2	COc1ccccc1CC(=O)Nc1c(-c2ccncc2)c(-c2ccc(F)cc2)nn1CCO [Example 104, 3-(4-fluorophenyl)-1-(2-hydroxyethyl)-5-(2-methoxyphenylacetylamino)-4-(4-pyridyl)pyrazole]
180.3 to 183.6	O=C(Cc1ccccc1)Nc1c(-c2ccncc2)c(-c2ccc(F)cc2)nn1CCO [Example 105, 3-(4-Fluorophenyl)-1-(2-hydroxyethyl)-5-phenylacetylamino-4-(4-pyridyl)pyrazole]
265.2 to 268	O=C(Cc1ccccc1Cl)Nc1c(-c2ccncc2)c(-c2ccc(F)cc2)nn1-c1ccccc1 [Example 107, 5-(2-chlorophenylacetylamino)-3-(4-fluorophenyl)-1-phenyl-4-(4-pyridyl)pyrazole]
127.5 to 132.1	Cn1nc(-c2ccc3c(c2)OCO3)c(-c2ccncc2)c1NC(=O)Cc1ccccc1 [Example 109, 1-methyl-3-(3,4-methylenedioxyphenyl)-5-phenylacetylamino-4-(4-pyridyl)pyrazole]
206.9 to 208.7	Cn1nc(-c2ccc3c(c2)OCO3)c(-c2ccncc2)c1NC(=O)Cc1ccc(F)c(Cl)c1 [Example 110, 5-(3-Chloro-4-fluorophenylacetylamino)-1-methyl-3-(3,4-methylenedioxyphenyl)-4-(4-pyridyl)pyrazole]

melting point [°C]	Compound
198.4 to 199.1	Cn1nc(-c2ccc(Cl)c(Cl)c2)c(-c2ccncc2)c1NC(=O)Cc1ccccc1 [Example 111, 3-(3,4-Dichlorophenyl)-1-methyl-5-phenylacetylamino-4-(4-pyridyl)pyrazole]
162.8 to 163.9	Cn1nc(-c2ccc(F)c(Cl)c2)c(-c2ccncc2)c1NC(=O)Cc1ccc(F)cc1Cl [Example 112, 3-(3-Chloro-4-fluorophenyl)-5-(2-chloro-4-fluorophenylacetylamino)-1-methyl-4-(4-pyridyl)pyrazole]
194.2 to 194.7	Cn1nc(-c2ccc(F)c(Cl)c2)c(-c2ccncc2)c1NC(=O)Cc1ccccc1 [Example 113, 3-(3-Chloro-4-fluorophenyl)-1-methyl-5-phenylacetylamino-4-(4-pyridyl)pyrazole]
194.7 to 196	Cn1nc(-c2ccc(F)c(Cl)c2)c(-c2ccncc2)c1NC(=O)Cc1c(F)c(F)c(F)c(F)c1F [Example 114, 3-(3-Chloro-4-fluorophenyl)-1-methyl-5-(2,3,4,5,6-pentafluorophenylacetylamino)4-(4-pyridyl)pyrazole]
279.3 to 280.1	Cn1nc(-c2ccc(Cl)c(Cl)c2)c(-c2ccncc2)c1NC(=O)Cc1ccc(F)cc1Cl [Example 115, 5-(2-Chloro-4-fluorophenylacetylamino)-3-(3,4-dichlorophenyl)-1-methyl-4-(4-pyridyl)pyrazole]
157.6 to 160.1	Cn1nc(NC(=O)Cc2ccccc2)c(-c2ccncc2)c1-c1ccc(F)cc1 [Example 116, 5-(4-fluorophenyl)-1-methyl-3-phenylacetylamino-4-(4-pyridyl)pyrazole]
164.9 to 166.5	Cn1nc(-c2ccc(F)cc2)c(-c2ccncc2)c1NC(=O)Cc1ccccc1 [Example 117, 3-(4-Fluorophenyl)-1-methyl-5-phenylacetylamino-4-(4-pyridyl)pyrazole]
193.8 to 195.3	Cn1nc(NC(=O)Cc2ccccc2Cl)c(-c2ccncc2)c1-c1ccc(F)cc1 [Example 118, 3-(2-Chlorophenylacetylamino)-5-(4-fluorophenyl)-1-methyl-4-(4-pyridyl)pyrazole]
169.8 to 171.1	CN(C(=O)Cc1ccccc1)c1nn(C)c(-c2ccc(F)cc2)c1-c1ccncc1 [Example 119, 5-(4-fluorophenyl)-1-methyl-3-(N-methyl-N-phenylacetylamino)-4-(4-pyridyl)pyrazole]
168.5 to 171.2	CN(C(=O)Cc1ccccc1)c1c(-c2ccncc2)c(-c2ccc(F)cc2)nn1C [Example 120, 3-(4-Fluorophenyl)-1-methyl-5-(N-methyl-N-phenylacetylamino)-4-(4-pyridyl)pyrazole]
168.6 to 171.2	CN(C(=O)Cc1ccccc1Cl)c1c(-c2ccncc2)c(-c2ccc(F)cc2)nn1C [Example 121, 5-[N-(2-chlorophenylacetyl)-N-methylamino]-3-(4-fluorophenyl)-1-methyl-4-(4-pyridyl)pyrazole]
205.7 to 207.8	CN(C(=O)Cc1c(Cl)cccc1Cl)c1c(-c2ccncc2)c(-c2ccc(F)cc2)nn1C [Example 122, 5-[N-(2,6-dichlorophenylacetyl)-N-methylamino]-3-(4-fluorophenyl)-1-methyl-4-(4-pyridyl)pyrazole]
124.1 to 125.6	CN(C(=O)Cc1ccc(F)cc1)c1c(-c2ccncc2)c(-c2ccc(F)cc2)nn1C [Example 125, 3-(4-Fluorophenyl)-5-[N-(4-fluorophenylacetyl)-N-methylamino]-1-methyl-4-(4-pyridyl)pyrazole]
175.8 to 178.1	COc1ccc(CC(=O)N(C)c2c(-c3ccncc3)c(-c3ccc(F)cc3)nn2C)cc1 [Example 126, 3-(4-Fluorophenyl)-1-methyl-5-[N-methyl-N-(4-methoxyphenylacetyl)amino]-4-(4-pyridyl)pyrazole]
124.5 to 127.3	CCCn1nc(-c2ccc(F)cc2)c(-c2ccncc2)c1N(C)C(=O)Cc1ccccc1 [Example 128, 3-(4-Fluorophenyl)-5-(N-methyl-N-phenylacetylamino)-1-propyl-4-(4-pyridyl)pyrazole]
144 to 145.2	CN(C(=O)Cc1ccccn1)c1c(-c2ccncc2)c(-c2ccc(F)cc2)nn1C [Example 129, 3-(4-Fluorophenyl)-1-methyl-5-[N-methyl-N-(2-pyridylacetyl)amino]-4-(4-pyridyl)pyrazole]
203.8 to 205.6	CN(C(=O)Cc1ccccc1Cl)c1c(-c2ccncc2)c(-c2ccc(F)cc2)nn1-c1ccccc1 [Example 130, 3-(4-Fluorophenyl)-5-[N-methyl-N-(2-chlorophenylacetyl)amino]-1-phenyl-4-(4-pyridyl)pyrazole]

Compound	melting point [°C]
C[C@H](NC(=O)OC(C)(C)C)C(=O)Nc1n[nH]c(-c2ccc(F)cc2)c1-c1ccncc1 [Example 86, 3-(N′-Carbo-t-butoxy-L-alanylamino)-5-(4-fluorophenyl)-4-(4-pyridyl)pyrazole]	223 to 224.7
CC(C)[C@H](NC(=O)OC(C)(C)C)C(=O)Nc1n[nH]c(-c2ccc(F)cc2)c1-c1ccncc1 [Example 87, 3-(N′-Carbo-t-butoxy-L-valylamino)-5-(4-fluorophenyl)-4-(4-pyridyl)pyrazole]	217.1 to 217.6
CC(C)(C)OC(=O)N1CCC[C@H]1C(=O)Nc1n[nH]c(-c2ccc(F)cc2)c1-c1ccncc1 [Example 88, 3-(N′-Carbo-t-butoxy-L-prolylamino)-5-(4-fluorophenyl)-4-(4-pyridyl)pyrazole]	124.6 to 125.7
CN(C(=O)OC(C)(C)C)[C@@H](Cc1ccccc1)C(=O)Nc1n[nH]c(-c2ccc(F)cc2)c1-c1ccncc1 [Example 89, 3-(N′-Carbo-t-butoxy-N′-methyl-L-Phenylalanylamino)-5-(4-fluorophenyl)-4-(4-pyridyl)pyrazole]	232.4 to 233.1
